From patent US20130065883A1 (Centro Nacional de Investigaceiones Oncologicas (CNIO), priority 2010, published 2013)
pIC50: −log10 of the molar value. Read-outs that look alike come from different tables or passages of the source.

Tests used:
[1] = molecular target: T1, PIM-2 (Homo sapiens, UniProt Q9P1W9); test: PIM-2 biochemical assay (ADP Hunter); settings: semi-quantitative class; read-out: PIM2 IC50;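 note: recombinant N-terminally His-tagged human enzyme, kinase activity quantified by detection of ADP formed as the direct reaction product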
T1 construct: histidine tag (N); made in house

[2] = molecular target: T2, FLT3 (Homo sapiens, UniProt P36888); test: FLT3 biochemical assay (ADP Hunter); settings: semi-quantitative class;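 note: FLT3 enzymatic activity quantified through the ADP produced by the kinase reaction, detected with an ADP Hunter readout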
T2 sequence (P36888 27-993): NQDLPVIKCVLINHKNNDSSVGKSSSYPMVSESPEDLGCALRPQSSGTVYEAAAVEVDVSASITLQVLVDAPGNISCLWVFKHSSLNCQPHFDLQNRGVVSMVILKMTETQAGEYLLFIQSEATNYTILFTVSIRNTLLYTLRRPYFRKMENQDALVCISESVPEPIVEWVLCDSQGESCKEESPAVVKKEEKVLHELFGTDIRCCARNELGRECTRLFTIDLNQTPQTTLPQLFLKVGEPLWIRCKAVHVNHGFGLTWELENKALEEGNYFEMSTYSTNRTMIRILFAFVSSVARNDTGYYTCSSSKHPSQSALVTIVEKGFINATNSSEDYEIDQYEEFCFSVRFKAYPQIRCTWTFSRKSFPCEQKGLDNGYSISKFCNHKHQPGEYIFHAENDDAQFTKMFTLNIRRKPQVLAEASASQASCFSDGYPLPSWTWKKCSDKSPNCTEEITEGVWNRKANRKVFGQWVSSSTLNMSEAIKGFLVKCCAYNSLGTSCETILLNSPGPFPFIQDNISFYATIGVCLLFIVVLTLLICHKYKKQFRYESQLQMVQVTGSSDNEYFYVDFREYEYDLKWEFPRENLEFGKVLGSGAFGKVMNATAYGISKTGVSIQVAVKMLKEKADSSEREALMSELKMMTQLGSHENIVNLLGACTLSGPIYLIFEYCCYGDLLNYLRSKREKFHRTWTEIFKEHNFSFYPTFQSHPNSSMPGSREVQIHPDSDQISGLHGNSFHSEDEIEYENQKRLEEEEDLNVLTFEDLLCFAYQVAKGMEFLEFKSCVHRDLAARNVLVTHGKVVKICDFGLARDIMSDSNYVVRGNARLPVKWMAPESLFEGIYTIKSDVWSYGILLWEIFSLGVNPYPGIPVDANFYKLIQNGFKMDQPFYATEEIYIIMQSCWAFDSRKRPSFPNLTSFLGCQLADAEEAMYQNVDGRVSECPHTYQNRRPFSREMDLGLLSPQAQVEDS

[3] = molecular target: T3, PIM-1 (Homo sapiens, UniProt P11309); test: PIM-1 biochemical assay (ADP Hunter); settings: semi-quantitative class; read-out: PIM1 IC50;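 note: recombinant human PIM-1 carrying a C-terminal His tag, kinase activity quantified via ADP formed as the direct enzymatic product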
T3 construct: histidine tag (C); made in house

[4] = molecular target: T4, PIM-3 (Homo sapiens, UniProt Q86V86); test: PIM-3 biochemical assay (ADP Hunter); settings: read-out: PIM3 IC50;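 note: kinase activity read out as the quantity of ADP generated by the enzyme reaction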
T4 construct: purchased Millipore 14-738

T1 sequence (Q9P1W9 whole entry): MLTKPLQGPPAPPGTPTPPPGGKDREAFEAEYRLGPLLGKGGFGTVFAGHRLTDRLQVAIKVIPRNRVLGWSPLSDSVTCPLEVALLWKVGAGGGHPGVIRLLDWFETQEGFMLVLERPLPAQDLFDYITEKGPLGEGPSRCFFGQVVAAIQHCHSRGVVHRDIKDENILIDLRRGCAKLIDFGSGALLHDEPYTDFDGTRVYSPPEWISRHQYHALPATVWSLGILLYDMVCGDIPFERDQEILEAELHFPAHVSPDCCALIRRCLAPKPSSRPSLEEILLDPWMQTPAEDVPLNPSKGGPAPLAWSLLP
T3 sequence (P11309 whole entry): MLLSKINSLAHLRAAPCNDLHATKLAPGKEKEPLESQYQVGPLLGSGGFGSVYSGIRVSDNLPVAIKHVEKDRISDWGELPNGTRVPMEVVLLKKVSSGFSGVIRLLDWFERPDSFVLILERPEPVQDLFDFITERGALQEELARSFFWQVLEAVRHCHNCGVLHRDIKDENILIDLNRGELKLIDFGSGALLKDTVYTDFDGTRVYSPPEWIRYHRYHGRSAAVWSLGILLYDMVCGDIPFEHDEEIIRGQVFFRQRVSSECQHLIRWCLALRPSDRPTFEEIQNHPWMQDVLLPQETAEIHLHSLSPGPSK

Row | Structure (SMILES) | pIC50 [1] | pIC50 [2] | pIC50 [3] | pIC50 ([4]; semi-quantitative class) | pIC50 ([4]; actual IC50 value in parentheses)
1 | COc1cc(NC2CCOCC2)nc2c1nnn2-c1cccc(N(C)C)c1 [2-93] |  | < 6.00 | 6.00 to 7.00 |  | 
2 | Oc1ccc(-n2nnc3ccc(N4CCCCCC4)nc32)cc1 [2-05] |  | < 6.00 |  |  | 
3 | CNCCCNc1ccc2nnn(-c3cccc(OC(F)(F)F)c3)c2n1 [2-50] | < 6.00 |  | 6.00 to 7.00 |  | 
4 | FC(F)(F)Oc1cccc(-n2nnc3ccc(N4CCC5(CC4)CNC5)nc32)c1 [2-43] | < 6.00 | < 6.00 | 6.00 to 7.00 |  | 
5 | c1ccc(CCNc2ccc3nnn(-c4ccccc4)c3n2)cc1 [2-11] | < 6.00 |  |  |  | 
6 | FC(F)(F)Oc1cccc(-n2nnc3ccc(NCCc4cccnc4)nc32)c1 [2-08] | < 6.00 |  |  |  | 
7 | CCOC(=O)c1cc2nnn(-c3ccc(O)cc3)c2nc1N1CCCCCC1 [2-16] | < 6.00 |  | < 6.00 |  | 
8 | CCN1CCOC2(CCN(c3ccc4nnn(-c5cccc(OC(F)(F)F)c5)c4n3)CC2)C1 [2-90] | < 6.00 | 6.00 to 7.00 | < 6.00 |  | 
9 | FC(F)(F)Oc1cccc(-n2nnc3ccc(N4CCC5(CCNC5)CC4)nc32)c1 [2-60] | < 6.00 | < 6.00 |  |  | 
10 | FC(F)(F)Oc1cccc(-n2nnc3ccc(N4CC5CNCC5C4)nc32)c1 (stereo not shown) [2-46] | < 6.00 | < 6.00 |  |  | 
11 | CCN1CCC2(CC1)CC(CNc1nc3c(cc1Cl)nnn3-c1cccc(OC(F)(F)F)c1)C2 [2-91] | < 6.00 | 6.00 to 7.00 | 6.00 to 7.00 |  | 
12 | NC(=O)CCNc1ccc2nnn(-c3cccc(OC(F)(F)F)c3)c2n1 [2-42] | < 6.00 |  | 6.00 to 7.00 |  | 
13 | COc1ccc(-n2nnc3ccc(NCc4ccc(F)cc4)nc32)cc1 [2-02, (4-Fluoro-benzyl)-[3-(4-methoxy-phenyl)-3H-[1,2,3]triazolo[4,5-b]pyridin-5-yl]amine] | < 6.00 |  |  |  | 
14 | FC(F)(F)Oc1cccc(-n2nnc3cc(Cl)c(NCC4CC5(CCNCC5)C4)nc32)c1 [2-77] | < 6.00 | < 6.00 | 6.00 to 7.00 |  | 
15 | FC(F)(F)c1csc(-n2nnc3ccc(NCC4CCNCC4)nc32)n1 [2-88] | < 6.00 | < 6.00 |  |  | 
16 | CC(C)(C)OC(=O)N1CCN(CCNc2ccc3nnn(-c4cccc(OC(F)(F)F)c4)c3n2)CC1 [2-34] | < 6.00 |  | < 6.00 |  | 
17 | O=C1CN(CCNc2ccc3nnn(-c4cccc(OC(F)(F)F)c4)c3n2)CCN1 [2-35] | < 6.00 |  | 6.00 to 7.00 |  | 
18 | O=CNCCN1CCN(c2ccc3nnn(-c4cccc(OC(F)(F)F)c4)c3n2)CC1 [2-29] | < 6.00 |  | 6.00 to 7.00 |  | 
19 | COc1cccc(CCNc2ccc3nnn(-c4ccc(F)cc4)c3n2)c1OC [2-17] | < 6.00 |  | < 6.00 |  | 
20 | CCOC(=O)c1cc2nnn(-c3ccc(OC)cc3)c2nc1NCC1CCN(C)CC1 [2-14, 3-(4-Methoxy-phenyl)-5-[(1-methyl-piperidin-4-ylmethyl)-amino]-3H-[1,2,3]triazolo[4,5-b]pyridine-6-carboxylic acid ethyl ester] | < 6.00 |  | < 6.00 |  | 
21 | O=C1CNC2(CCN(c3ccc4nnn(-c5cccc(OC(F)(F)F)c5)c4n3)CC2)C1 [2-52] | < 6.00 |  | < 6.00 |  | 
22 | FC(F)(F)Oc1cccc(-n2nnc3ccc(NC4CCOCC4)nc32)c1 [2-10] | < 6.00 |  |  |  | 
23 | Fc1ccc(-n2nnc3ccc(N4CCOCC4)nc32)cc1 [2-13] | < 6.00 |  |  |  | 
24 | O=C(CN1CCC(CNc2ccc3nnn(-c4cccc(OC(F)(F)F)c4)c3n2)CC1)C1CC1 [2-26] | < 6.00 |  |  |  | 
25 | FC(F)(F)Oc1cccc(-n2nnc3ccc(NCC4CC4)nc32)c1 [2-20] | < 6.00 |  | 6.00 to 7.00 |  | 
26 | CS(=O)(=O)N1CCN(c2ccc3nnn(-c4cccc(OC(F)(F)F)c4)c3n2)CC1 [2-72] | < 6.00 |  | 6.00 to 7.00 | < 6.00 | 
27 | FC(F)(F)Oc1cccc(-n2nnc3ccc(N4CCC5(CCNCC5)CC4)nc32)c1 [2-45] | < 6.00 | < 6.00 |  |  | 
28 | COCCN1CCC(CNc2ccc3nnn(-c4cccc(OC(F)(F)F)c4)c3n2)CC1 [2-30] | < 6.00 | < 6.00 |  |  | 
29 | COc1ccc(-n2nnc3ccc(N4CCCCCC4)nc32)cc1 [2-01] | < 6.00 |  |  |  | 
30 | OCCCNc1ccc2nnn(-c3cccc(OC(F)(F)F)c3)c2n1 [2-38] | < 6.00 | < 6.00 | 6.00 to 7.00 |  | 

Now from value to molecule:

Row | pIC50 [1] | pIC50 [2] | pIC50 [3] | pIC50 ([4]; semi-quantitative class) | pIC50 ([4]; actual IC50 value in parentheses) | Structure (SMILES)
31 | < 6.00 | < 6.00 | 6.00 to 7.00 |  |  | CC(C)CN1CCC(CNc2ccc3nnn(-c4cccc(OC(F)(F)F)c4)c3n2)CC1 [2-74]
32 | < 6.00 |  |  |  |  | CCCNc1ccc2nnn(-c3cccc(OC(F)(F)F)c3)c2n1 [2-09]
33 | < 6.00 |  |  |  |  | Fc1ccc(-n2nnc3ccc(N4CCCCCC4)nc32)cc1 [2-12]
34 | < 6.00 |  | < 6.00 |  |  | CC(=O)NCCNc1ccc2nnn(-c3cccc(OC(F)(F)F)c3)c2n1 [2-41]
35 | < 6.00 |  | < 6.00 |  |  | CC(C)(C)OC(=O)N1CCC(Nc2ccc3nnn(-c4cccc(OC(F)(F)F)c4)c3n2)CC1 [2-33]
36 | < 6.00 |  |  |  |  | CN(C)C(=O)CN1CCC(CNc2ccc3nnn(-c4cccc(OC(F)(F)F)c4)c3n2)CC1 [2-22]
37 | < 6.00 | 6.00 to 7.00 | 6.00 to 7.00 |  |  | FC(F)(F)Oc1cccc(-n2nnc3ccc(NCCN4CCNCC4)nc32)c1 [2-36]
38 | < 6.00 |  |  |  |  | NS(=O)(=O)c1ccc(CCNc2ccc3nnn(-c4ccccc4)c3n2)cc1 [2-18]
39 | < 6.00 | < 6.00 | 6.00 to 7.00 |  |  | FC(F)(F)Oc1cccc(-n2nnc3ccc(NCC4CCN(CC5CCOCC5)CC4)nc32)c1 [2-75]
40 | < 6.00 | 6.00 to 7.00 |  |  |  | Nc1ccc(-n2nnc3ccc(NCC4CCNCC4)nc32)cn1 [2-71]
41 | < 6.00 |  | < 6.00 |  |  | CN(C)CCNc1ccc2nnn(-c3cccc(OC(F)(F)F)c3)c2n1 [2-39]
42 | < 6.00 |  | < 6.00 |  |  | CCOC(=O)c1cc2nnn(-c3ccc(O)cc3)c2nc1NCc1ccc(F)cc1 [2-15]
43 | < 6.00 |  | < 6.00 |  |  | CCOC(=O)c1cc2nnn(-c3ccc(OC)cc3)c2nc1NCc1ccc(F)cc1 [2-06]
44 | < 6.00 |  | < 6.00 |  |  | NC(=O)CNc1ccc2nnn(-c3cccc(OC(F)(F)F)c3)c2n1 [2-40]
45 | < 6.00 | < 6.00 |  | < 6.00 |  | FCCN1CCC(CNc2ccc3nnn(-c4cccc(OC(F)(F)F)c4)c3n2)CC1 [2-28]
46 | < 6.00 | < 6.00 |  | 6.00 to 7.00 |  | CCN1CCC(CNc2ccc3nnn(-c4cccc(OC(F)(F)F)c4)c3n2)CC1 [2-76]
47 | < 6.00 | < 6.00 |  | 6.00 to 7.00 |  | FC(F)(F)c1cccc(-n2nnc3ccc(NCC4CCNCC4)nc32)c1 [2-63]
48 | < 6.00 |  |  |  |  | CCCNc1ccc2nnn(-c3ccc(O)cc3)c2n1 [2-24]
49 | < 6.00 |  | < 6.00 |  |  | O=C1NCCC12CCN(c1ccc3nnn(-c4cccc(OC(F)(F)F)c4)c3n1)CC2 [2-51]
50 | < 6.00 |  | 6.00 to 7.00 |  |  | FC(F)(F)Oc1cccc(-n2nnc3ccc(NCC4CCN(C5CC5)CC4)nc32)c1 [2-27]
51 | < 6.00 | < 6.00 |  | 6.00 to 7.00 |  | CC(C)N1CCC(CNc2ccc3nnn(-c4cccc(OC(F)(F)F)c4)c3n2)CC1 [2-73]
52 | < 6.00 |  | 6.00 to 7.00 |  |  | O=C1NCCN1CCNc1ccc2nnn(-c3cccc(OC(F)(F)F)c3)c2n1 [2-48]
53 | < 6.00 | < 6.00 | 6.00 to 7.00 |  |  | FC(F)(F)Oc1cccc(-n2nnc3ccc(N4CCC5(CCNC5)C4)nc32)c1 (stereo not shown) [2-64]
54 | 6.00 to 7.00 | < 6.00 |  | > 7.00 | 7.29 | Oc1ccc(-n2nnc3ccc(NCc4ccc(F)cc4)nc32)cc1 [2-04, 4-[5-(4-Fluoro-benzylamino)-[1,2,3]triazolo[4,5-b]pyridin-3-yl]-phenol]
55 | < 6.00 | < 6.00 |  | 6.00 to 7.00 |  | CNC1CCN(c2ccc3nnn(-c4cccc(OC(F)(F)F)c4)c3n2)CC1 [2-44]
56 | < 6.00 |  | < 6.00 |  |  | CCOC(=O)c1cc2nnn(-c3ccc(OC)cc3)c2nc1N1CCCCCC1 [2-07]
57 | < 6.00 |  | 6.00 to 7.00 |  |  | OCCNc1ccc2nnn(-c3cccc(OC(F)(F)F)c3)c2n1 [2-37]
58 | < 6.00 | < 6.00 |  |  |  | FC(F)(F)Oc1cccc(-n2nnc3ccc(NCC4CCN(CC5CC5)CC4)nc32)c1 [2-31]
59 | < 6.00 |  | < 6.00 |  |  | CC(=O)Nc1ccc(-n2nnc3ccc(NCC4CCN(C)CC4)nc32)cc1 [2-23]
60 | < 6.00 |  | < 6.00 |  |  | COc1ccc(-n2nnc3ccc(NCc4cccc(Cl)c4)nc32)cc1 [2-03]
